Here are results for one compound from CN114848615A, “和厚朴酚小分子自主装纳米粒及制备方法” (Tianjin University, priority 2022, dated 2022).

The nature of the data set: SEM/TEM characterisation and appearance/distribution in water. The format is physicochemical. To be noted: in words.

The structures appear in SMILES notation.

`C=CCc1ccc(O)c(-c2ccc(O)c(CC=C)c2)c1` [HK, 和厚朴酚]: the distribution/appearance in water entry is “形成浑浊的白色浆液”.
